# Tests used:
# [1] = test system: CT26 mouse colon carcinoma cells; assay: Cell growth inhibition of CT26 cells, CellTiter-Glo (CTG) assay; format: cell-based; conditions: 72 h, CT26 cells (KRAS G12D, MAPK1 and MET amplifications), 3 days, 10% FBS, read-out: IC50 value in cell proliferation inhibition
# Experimental: CT26 mouse colon carcinoma cells from American Type Culture Collection (ATCC, cat#CRL-2638, lot#59227052) were cultured in RPMI with 10% fetal bovine serum (FBS) media. Cell growth inhibition was determined via CellTiter-Glo® (CTG) assay (Promega) according to the manufacturer's protocol. Approximately 24 hours after plating, cells were exposed to Compound A with three-fold serial dilutions. Cells were incubated with the compound in culture medium containing 10% FBS for 3 days. IC50 values were interpolated using the method of Levenberg & Marquardt and the equation: y=Vmax−{1−[xn/(Kn+xn)]}, where ‘K’ is equal to IC50 (Mager M E, Data Analysis in Biochemistry and Biophysics. New York: Academic Press. 1972).
# pERK1/2 (T202/Y204) = assay: MAPK signaling inhibition in CT26 cells by western blot (pERK); format: cell-based, mouse; conditions: 24 hours
# Experimental: MAPK signaling inhibition by Compound A from CT 26 cells were determined by western blot analysis. CT26 cells were treated with Compound A in culture medium containing 10% FBS for 24 hours. Proteins were extracted for immunoblotting with anti-ERK1/2 and pERK1/2 (T202/Y204) from Santa Cruz Biotechnology. The membranes were developed with Odyssey Infrared Imaging System (LI-COR Biosciences).
# CT26 tumors = assay: CT-26 murine carcinoma syngeneic mouse model; format: in vivo, BALB/C mice; conditions: mono-therapy at 1 mg/kg orally once a day, after 18 days of treatment
# Experimental: Female BALB/C mice (Charles River) were used. The animals received food and water ad libitum and were housed in compliance normal standard of care for Laboratory Animals. Tumors were established by subcutaneously implanting 5×10^4 CT26 cells in suspension into the right flanks of mice. Tumor […] were calculated using the equation (l×w^2)/2, where l and w refer to the larger and smaller dimensions collected at each measurement. Treatments began at day 11 after cell implantation with tumor size around 40-100 mm^3. Mice (n=10/group) were treated with Compound A at 1 mg/kg, orally once a day for 21 days, or anti-mouse antibodies, rat-IgG2a and αPD-L1 (10F.9G2 clone) at 10 mg/kg, intraperitoneally (i.p.) twice weekly for three weeks. Tumors were monitored and each animal was euthanized when it's tumor reached the endpoint volume of 2000 mm^3, ulcerated, or on the final day (Day 21), whichever came first. Percent tumor growth inhibition (% TGI) was defined as the difference between the mean tumor volume (MTV) of the designated control group and the MTV of the drug-treated group, expressed as a percentage of the MTV of the designated control group: % TGI=[1−(MTVdrug-treated/MTVcontrol)]×100.
# Log-transformed tumor volume was analyzed using ANOVA, fitting a term for treatment. Differences between fitted treatment means were then calculated with associated raw p-values. […]
structure (smiles),measurement,setting,value
"CC(=O)Nc1cccc(-n2c(=O)n(C3CC3)c(=O)c3c(Nc4ccc(I)cc4F)n(C)c(=O)c(C)c32)c1 [Compound A, N-{3-[3-cyclopropyl-5-(2-fluoro-4-iodo-phenylamino)6,8-dimethyl-2,4,7-trioxo-3,4,6,7-tetrahydro-2H-pyrido[4,3-d]pyrimidin-1-yl]phenyl}acetamide]",IC50,[1],20 nM
same,MAPK signaling inhibition measured by pERK,pERK1/2 (T202/Y204),dose dependent MAPK signaling inhibition
same,TGI (tumor growth inhibition),CT26 tumors,61%

# Source: US20160089434A1, “COMBINATIONS OF AN ANTI-PD-L1 ANTIBODY AND A MEK INHIBITOR AND/OR A BRAF INHIBITOR” (NOVARTIS AG, priority 2013, published 2016)
